From patent US6348477B1, “Anti-herpesvirus compounds and methods for identifying, making and using same” (Boehringer Ingelheim(Canada) Ltd., priority 1995, dated 2002)
Marks after values point to notes of the source that are not given here.

Assays:
HSV-1 helicase-primase = molecular target: T1, HSV-1 helicase-primase (Human herpesvirus 1, UniProt P10189+P10236); test: HSV-1 DNA-dependent ATPase assay (inhibition of HSV-1 helicase-primase); format: biochemical; details: Group 1 Table 1
T1 construct: made in house; host or cells: Sf21 insect cells triply infected with recombinant baculoviruses
Excerpt: A) HSV-1 DNA-Dependent ATP Assay (an in Vitro Assay Based on the Inhibition of HSV-1 Helicase-primase).
a) Preparation of enzyme: HSV-1 helicase-primase holoenzyme was produced in triply infected Sf21 cells using recombinant baculoviruses expressing the UL5, UL8 and UL52 helicase-primase subunits, as described by S. Dracheva et al., J. Biol. Chem. 1995, 270, 14148. The crude enzyme was purified by ammonium sulfate precipitation, Source 15Q® chromatography and Sephacryl® S-300 HR gel filtration (both purification systems can be obtained from Pharmacia Biotech Inc., Montreal, Quebec, Canada), see S. Dracheva et al., supra.
b) Assay: The DNA-dependent ATPase assay, described by J. J. Crute et al., Nucleic Acids Res. 1988, 16, 6585, was modified and used to evaluate the capability of the compounds of Group 1-formula 1 to inhibit HSV-1 helicase-primase activity. The reaction mixtures (80 μL each) contained 40 mM 4-(2-hydroxyethyl)-1-piperazineethanesulfonic acid (HEPES, pH 7.5), 10% (v/v) glycerol, 5.5 mM MgCl2, 1 mM DL-dithiothreitol (DTT), 50 μg/mL acetylated bovine serum albumin, 3.3% (v/v) DMSO, 4 mM ATP, 25 μM single-stranded M13 DNA hybridized to double-tailed 68-mer oligonucleotide and 3 μg/mL HSV-1 helicase-primase. After incubation for 20 min at 34°, formation of inorganic phosphate from hydrolysis of ATP was monitored spectrophotometrically at 650 nm using acidic ammonium molybdate/malachite green reagent, P. A. Lanzetta et al., Anal. Biochem. 1979, 100, 95. DNA-dependent ATPase activity was calculated from the net absorbance change in the presence and absence of inhibition.

HCMV (strain AD169) [1] = test: Inhibition of HCMV replication, ELISA assay (Hs-68 cells, p28); format: cell-based, human cytomegalovirus; details: Group 1 Table 1, read-out: ELISA CMV EC50
Method: (§1) C) Inhibition of Human Cytomegalovirus (HCMV) replication
(§2) The effect of compounds on the replication of HCMV has been measured by using an ELISA-based assay (ELISA) and a plaque reduction assay (PRA).
(§3) Hs-68 cells (ATCC # CRL 1635) were seeded in 96 well microtiter plates at 10,000 cells/well in 100 μL of DMEM medium (Gibco Canada Inc.) supplemented with 10% fetal bovine serum (FBS, Gibco Canada Inc.). The plates were incubated for 3 days at 37° to allow the cells to reach 80-90% confluency prior to the assay.
The medium was removed from wells by aspiration. The cells then were infected at a multiplicity of infection (MOI) of 0.01 PFU/cell with 50 μL of HCMV (strain AD169, ATCC VR-538) in DMEM medium supplemented with 5% heat inactivated FBS (assay medium). The virus was allowed to adsorb to cells for 2 h at 37°. Following viral adsorption, the medium was removed from the wells by aspiration. The cells were washed twice with 200 μL of assay medium to remove unabsorbed virus. The cells were then incubated with or without 100 μL of appropriate concentrations of test reagent in assay medium. After 8 days of incubation at 37°, the extent of viral replication was determined by an ELISA assay which detects the late structural protein p28 of HCMV.
Eight days after infection, the medium was aspirated from the wells. Non-specific binding sites were blocked by adding 200 μL of phosphate buffered saline containing 1% (w/v) bovine serum albumin (blocking buffer) to each well and incubating the plates for 30 min at room temperature. After removal of the blocking buffer by aspiration, the cells were fixed with 100 μL of cold ethanol-acetone solution (95:5) per well. The plates were placed at −20° for 30 min. The plates were washed 4 times with phosphate buffered saline containing 0.05% (v/v) polyoxyethylene sorbitan monolaurate (Tween 20®). Thereafter, 100 μL of mAb UL99 (Advanced Biotechnologies Inc., #13-130-100) recognizing HCMV protein p28 was added to each wells and plates were incubated for 2 h at room temperature. The plates were washed four times with 200 μL of the above-noted phosphate buffered saline/Tween-20® solution. The cells were then incubated with 100 μL of sheep anti-mouse IgGγ horseradish peroxidase conjugated for 2 h at room temperature. The plates were then washed four times with 200 μL of above-noted phosphate buffered saline/Tween-20®solution. Thereafter, 100 μL of ortho phenylenediamine dihydrochloride (OPD, Gibco Canada Inc.) solution was added to each well and the plates were agitated on a microplate shaker for 30 min in the dark. Color development was monitored at 450 nm using a microplate spectrophotometer.
The SAS program was used to calculate the % inhibition of viral replication and to generate EC50 values.
The EC50 values obtained according to this assay method for certain thiazolylphenyl derivatives of this invention are listed in the following tables under the heading ELISA CMV.

HCMV (strain AD169) [2] = test: Inhibition of HCMV replication, plaque reduction assay (PRA, Hs-68 cells); format: cell-based, human cytomegalovirus; details: Group 1 Table 1, read-out: PRA CMV EC50
Method: as §1, §2
as §3, with “( ATCC” for “(ATCC”, “12-well” for “96 well microtiter”, “83,000” for “10,000”, “1 mL” for “100 μL”
The medium was removed from the cells by aspiration. The cells were then infected with approximately 50 PFU of HCMV (strain AD169, ATCC VR-538) in DMEM medium supplemented with 5% inactivated FBS (assay medium). The virus was allowed to adsorb to cells for 2 h at 37°. Following viral adsorption, the medium was removed from the wells by aspiration. The cells were then incubated with or without 1 mL of appropriate concentrations of test reagent in assay medium. After 4 days of incubation at 37°, the medium was exchanged with fresh medium containing test compound and 4 days later the cells were fixed with 1% aqueous formaldehyde and stained with a 2% crystal violet solution in 20% ethanol in water. Microscopic plaques were counted using a stereomicroscope. Drug effects were calculated as a percent reduction in the number of plaques in the presence of each drug concentration compared to the number observed in the absence of drug. Ganciclovir was used as a positive control in all experiments.
The EC50 values obtained according to this assay for certain thiazolyl derivatives of this invention are listed in the following tables under the heading PRA CMV.

Hs-68 cells = test: Cytotoxicity noted in the CMV assays (table footnote); format: cell-based; details: Group 1 Table 1
Method: as §3
as §3, with “( ATCC” for “(ATCC”, “12-well” for “96 well microtiter”, “83,000” for “10,000”, “1 mL” for “100 μL”

HSV-1 strain F or KOS = test: Inhibition of herpes simplex virus (HSV-1) replication in cell culture (BHK-21 cells, glycoprotein C ELISA); format: cell-based; details: Group 1 Table 1
Method: B) Inhibition of Herpes Simplex Virus (HSV-1) Replication in Cell Culture
Assay: BHK-21 cells clone 13 (ATCC CCL10) were incubated for two days in 850 cm^2 roller bottles (2×10^7 cells/bottle) with α-MEM medium (Gibco Canada Inc., Burlington, Ontario, Canada) supplemented with 8% (v/v) fetal bovine serum (FBS, Gibco Canada, Inc.). The cells were trypsinized and then 3,000 cells in 100 μL of fresh medium were transferred into each well of a 96-well microtiter plate. The cells were incubated at 37° for a period of 3 days to reach a density of 50,000 cells per well. The cells were washed twice with 100 μL of α-MEM supplemented with 2% heat inactivated FBS and incubated for 1-2 hours in 100 μL of the same medium.
Thereafter, the cells were infected with HSV-1 strain F or KOS (multiplicity of infection=0.05 PFU/cell) in 50 μL of α-MEM supplemented with 2% heat inactivated FBS. Following one hour of virus absorption at 37°, the medium was removed and the cells were washed with α-MEM supplemented with 2% heat inactivated FBS (2×100 μL). The cells were incubated with or without 100 μL of the appropriate concentration of test reagent in α-MEM medium supplemented with 2% heat inactivated FBS. After 24 hours of incubation at 37°, the extent of viral replication was determined by an ELISA assay; for instance, the following assay that detects the late glycoprotein C of HSV-1.
Cells were fixed in the microtiter plate with 100 μL of 0.063% glutaraldehyde in phosphate buffered saline for 30 min at room temperature. The microtiter plate was then washed once with casein blocking solution and blocked with 200 μL of the same solution for one hour at room temperature. Thereafter, 100 μL of mAb C11 recognizing the glycoprotein C of HSV-1 (see E. Trybala et al., Journal of General Virology, 1994, 75, 743) was added to each well for two hours at room temperature. The plate was washed three times with phosphate buffered saline containing 0.05% polyoxyethylene (20) sorbitan monooleate. The cells were incubated with 100 μL of sheep anti-mouse IgG horseradish peroxidase for one hour at room temperature in the dark.
The plate was washed three times with 200 μL of the above-noted phosphate buffer saline preparation, and then once with 0.1 M sodium citrate (pH 4.5). Thereafter, 100 μL of orthophenylenediamine dihydrochloride (OPD, Gibco, Canada Inc.) was added to each well. The plate was agitated on a microplate shaker for 30 min in the dark. Color development was monitored at 450 nm using a microplate spectrophotometer.
SAS was used to calculate % inhibition of viral replication and to generate EC50 values.

[3] = Human betaherpesvirus 5, AD169, Hs68

T1 sequence (P10189 whole entry): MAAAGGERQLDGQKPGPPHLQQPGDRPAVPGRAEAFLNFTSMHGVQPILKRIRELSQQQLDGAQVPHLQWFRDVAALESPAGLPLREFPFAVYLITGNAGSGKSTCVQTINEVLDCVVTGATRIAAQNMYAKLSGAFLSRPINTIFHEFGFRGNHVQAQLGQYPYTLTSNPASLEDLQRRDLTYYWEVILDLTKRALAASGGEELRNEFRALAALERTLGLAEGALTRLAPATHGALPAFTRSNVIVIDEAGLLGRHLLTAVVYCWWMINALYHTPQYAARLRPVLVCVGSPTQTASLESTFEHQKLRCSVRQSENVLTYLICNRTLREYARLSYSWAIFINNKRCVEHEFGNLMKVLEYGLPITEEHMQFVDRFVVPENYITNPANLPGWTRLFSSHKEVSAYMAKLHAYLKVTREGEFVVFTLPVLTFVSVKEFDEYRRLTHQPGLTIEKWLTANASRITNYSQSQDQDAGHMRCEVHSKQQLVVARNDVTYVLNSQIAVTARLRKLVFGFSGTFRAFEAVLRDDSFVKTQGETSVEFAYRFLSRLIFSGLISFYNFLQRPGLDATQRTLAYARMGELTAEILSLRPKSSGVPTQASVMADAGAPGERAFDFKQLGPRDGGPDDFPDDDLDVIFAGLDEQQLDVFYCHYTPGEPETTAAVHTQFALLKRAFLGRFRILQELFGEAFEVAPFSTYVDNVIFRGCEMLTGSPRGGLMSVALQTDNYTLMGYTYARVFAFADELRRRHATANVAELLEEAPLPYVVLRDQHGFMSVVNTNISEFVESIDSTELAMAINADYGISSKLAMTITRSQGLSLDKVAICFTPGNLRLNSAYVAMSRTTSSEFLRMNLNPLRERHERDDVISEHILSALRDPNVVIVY
T1 sequence (P10192 whole entry, further chain): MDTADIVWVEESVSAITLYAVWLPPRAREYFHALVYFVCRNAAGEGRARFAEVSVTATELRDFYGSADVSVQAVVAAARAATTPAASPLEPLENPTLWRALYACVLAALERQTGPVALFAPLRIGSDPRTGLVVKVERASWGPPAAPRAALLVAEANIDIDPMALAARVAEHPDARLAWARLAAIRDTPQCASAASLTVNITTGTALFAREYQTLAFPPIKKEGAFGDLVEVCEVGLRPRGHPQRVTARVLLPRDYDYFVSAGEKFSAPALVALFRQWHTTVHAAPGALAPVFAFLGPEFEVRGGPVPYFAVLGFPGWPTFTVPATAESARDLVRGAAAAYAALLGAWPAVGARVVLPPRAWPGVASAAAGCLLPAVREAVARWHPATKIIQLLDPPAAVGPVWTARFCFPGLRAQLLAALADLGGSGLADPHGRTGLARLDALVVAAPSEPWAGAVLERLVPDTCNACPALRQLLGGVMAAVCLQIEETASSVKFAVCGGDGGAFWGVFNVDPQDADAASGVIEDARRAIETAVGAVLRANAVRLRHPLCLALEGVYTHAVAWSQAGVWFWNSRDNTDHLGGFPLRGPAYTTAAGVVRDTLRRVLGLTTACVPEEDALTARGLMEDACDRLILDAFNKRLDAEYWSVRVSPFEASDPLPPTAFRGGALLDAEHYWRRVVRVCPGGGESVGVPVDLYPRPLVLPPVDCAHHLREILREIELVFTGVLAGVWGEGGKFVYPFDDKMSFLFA
T1 sequence (P10236 whole entry): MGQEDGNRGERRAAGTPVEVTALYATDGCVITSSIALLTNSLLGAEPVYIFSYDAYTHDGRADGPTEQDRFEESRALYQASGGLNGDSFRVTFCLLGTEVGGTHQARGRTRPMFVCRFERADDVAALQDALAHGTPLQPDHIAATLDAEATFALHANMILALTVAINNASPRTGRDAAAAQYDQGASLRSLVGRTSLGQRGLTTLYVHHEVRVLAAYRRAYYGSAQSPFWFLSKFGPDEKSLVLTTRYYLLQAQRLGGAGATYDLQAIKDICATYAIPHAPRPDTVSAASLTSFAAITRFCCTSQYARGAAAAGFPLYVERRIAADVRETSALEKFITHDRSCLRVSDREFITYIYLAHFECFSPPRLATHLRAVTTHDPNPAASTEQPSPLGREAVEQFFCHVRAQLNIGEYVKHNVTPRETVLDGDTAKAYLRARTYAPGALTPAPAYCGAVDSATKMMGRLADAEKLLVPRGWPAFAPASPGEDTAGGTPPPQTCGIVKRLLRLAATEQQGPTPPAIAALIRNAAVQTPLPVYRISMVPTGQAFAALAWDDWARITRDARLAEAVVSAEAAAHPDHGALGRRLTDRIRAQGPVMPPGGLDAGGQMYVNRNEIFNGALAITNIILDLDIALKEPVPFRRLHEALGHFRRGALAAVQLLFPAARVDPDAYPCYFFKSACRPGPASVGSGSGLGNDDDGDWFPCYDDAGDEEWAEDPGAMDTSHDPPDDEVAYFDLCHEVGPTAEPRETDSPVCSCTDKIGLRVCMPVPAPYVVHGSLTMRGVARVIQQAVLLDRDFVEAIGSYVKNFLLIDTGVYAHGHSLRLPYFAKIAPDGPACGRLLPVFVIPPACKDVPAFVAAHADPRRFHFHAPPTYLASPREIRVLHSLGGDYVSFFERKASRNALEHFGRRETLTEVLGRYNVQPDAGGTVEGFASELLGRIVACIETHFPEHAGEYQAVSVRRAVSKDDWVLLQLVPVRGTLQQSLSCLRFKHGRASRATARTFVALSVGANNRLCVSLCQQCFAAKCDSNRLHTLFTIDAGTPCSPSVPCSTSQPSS

Row | SMILES | Cytotoxic at this concentration (Hs-68 cells; asterisk in PRA CMV) | melting point | other results
1 | Nc1nc(-c2ccc(NC(=O)CN(CC3CCCCC3)S(=O)(=O)N3CCOCC3)cc2)cs1 [Example 107] | 12* μM |  | IC50 (HSV-1 helicase-primase): 2600 nM; EC50 (HCMV (strain AD169) [1]; [3]): 1100 nM; EC50 (HCMV (strain AD169) [2]; [3]): 12000 nM
2 | CCC(CC)C(=O)N(CC(=O)Nc1ccc(-c2csc(N)n2)cc1)Cc1ccccc1 [Example 104] | >18* μM |  | 
3 | Cc1ccccc1CN(CC(=O)Nc1ccc(-c2csc(N)n2)cc1)C(=O)Cc1ccccn1 [Example 127] | 25* μM |  | 
4 | NC(=O)N(Cc1ccc(F)cc1)c1ccc(-c2csc(N)n2)cc1 [Example 2, N-{4-(2-Amino-4-thiazolyl)phenyl}-N-{(4-fluorophenyl)methyl}urea] |  | 227 to 230 °C | 
5 | Nc1nc(-c2ccc(NC(=O)CN(Cc3ccccc3)C(=O)N3CCOCC3)cc2)cs1 [Example 6, N-{2-{{4-(2-Amino-4-thiazolyl)phenyl}amino}-2-oxoethyl}-N-(phenylmethyl)-4-morpholinecarboxamide] |  | 105 °C (dec.) | 
6 | CCCCN(CCCC)C(=O)C(=O)Nc1ccc(-c2csc(N)n2)cc1 [Example 4, N-{4-(2-Amino-4-thiazolyl)phenyl}-N′,N′-dibutylethanediamide] |  | 178 to 179 °C | 
7 | Nc1nc(-c2ccc(NC(=O)CNCC3CCCCC3)cc2)cs1 [Example 3, N-{4-(2-Amino-4-thiazolyl)phenyl}-2-{(cyclohexyl-methyl)amino}acetamide] |  | 164 to 166 °C | 
8 | CC(c1ccccc1)N(CC(=O)Nc1ccc(-c2csc(N)n2)cc1)C(=O)OC(C)(C)C (centres unmarked) [Example 89] |  |  | IC50 (HSV-1 helicase-primase): 98 nM; EC50 (HSV-1 strain F or KOS): 36 nM; EC50 (HCMV (strain AD169) [1]): 900 nM; EC50 (HCMV (strain AD169) [2]): 38000 nM
9 | Nc1nc(-c2ccc(NC(=O)[C@@H]3CCCN3Cc3ccccc3)cc2)cs1 [Example 15, N-{4-(2-Amino-4-thiazolyl)phenyl}-1-(phenylmethyl)-2(S)-pyrrolidinecarboxamide] |  | 207 to 209 °C | 
10 | CC(c1ccccc1)N(CC(=O)Nc1ccc(-c2csc(N)n2)cc1)C(=O)OC(C)(C)C (centres unmarked) [Example 88] |  |  | IC50 (HSV-1 helicase-primase): 2400 nM; EC50 (HSV-1 strain F or KOS): 1200 nM; EC50 (HCMV (strain AD169) [1]): > 47000 nM
11 | CCCC(CCC)N(CC(=O)Nc1ccc(-c2csc(N)n2)cc1)C(=O)C1CCCCC1 [Example 82] | 7* μM |  | 
12 | Nc1nc(-c2ccc(NC(=O)[C@@H]3CCCN3C(=O)c3ccccc3)cc2)cs1 [Example 14, N-{4-(2-Amino-4-thiazolyl)phenyl}1-benzoyl-2(S)-pyrrolidinecarboxamide] |  | 132 to 133 °C | 
13 | CCCC(CCC)N(CC(=O)Nc1ccc(-c2csc(N)n2)cc1)C(=O)OC(C)(C)C [Example 111] |  |  | Cytotoxic at this concentration (Hs-68 cells; asterisk in ELISA CMV column): 4.0* μM
14 | Nc1nc(-c2ccc(NC(=O)CN(CC3CCCCC3)C(=O)C3CCCC3)cc2)cs1 [Example 63] | >21* μM |  | 
15 | Nc1nc(-c2ccc(NC(=O)CN(Cc3ccccc3)S(=O)(=O)N3CCOCC3)cc2)cs1 [Example 7, N-{4-(2-Amino-4-thiazolyl)phenyl}-2-{(4-morpholinylsulfonyl)(phenylmethyl)amino}acetamide] |  | 193 to 194 °C | 
16 | Nc1nc(-c2ccc(NC(=O)CN(Cc3ccccc3)C(=O)Cc3cccnc3)cc2)cs1 [Example 113] | >50* μM |  | 
17 | CC(C)(C)OC(=O)N[C@@H](Cc1ccccc1)C(=O)Nc1ccc(-c2csc(N)n2)cc1 [Example 11, tert-Butyl N-{2-{{4-(2-Amino-4-thiazolyl)phenyl}-amino}-2-oxo-1(S)-(phenylmethyl)ethyl}carbamate] |  | 183 to 185 °C | 
18 | Nc1nc(-c2ccc(NC(=O)CN(Cc3ccccc3)C(=O)C3CCCCC3)cc2)cs1 [Example 4, N-{2-{{4-(2-Amino-4-thiazolyl)phenyl)amino}-2-oxoethyl}-N-(phenylmethyl)cyclohexanecarboxamide] |  | 214.5 to 215.5 °C | 
